From the RepoRT retention time repository

Assay: A: acetonitrile + 0.1% formic acid + 10 mM ammonium formate; B: 5% water + 95% acetonitrile + 0.1% formic acid + 10 mM ammonium formate; gradient (min/%B) 0/10 2/10 22/100 27/100 27.1/10
Conditions: stereoisomer not certain

CC(C)C[C@H](N)C(=O)N[C@@H](C)C(=O)O [L-Leucyl-L-alanine]
LC retention time: 5.82 min

CC(=O)N[C@@H](Cc1ccccc1)C(=O)O [N-Acetyl-L-phenylalanine]
LC retention time: 1.32 min

NCCCCC(NC(CCc1ccccc1)C(=O)O)C(=O)N1CCCC1C(=O)O (centres undefined) [Lisinopril]
LC retention time: 6.87 min

NCCS(=O)(=O)O [Taurine]
LC retention time: 5.82 min

CC(CCC(=O)NCC(=O)O)C1CCC2C3CCC4CC(O)CCC4(C)C3CC(O)C12C (centres undefined) [Glycodeoxycholic acid]
LC retention time: 2.78 min

NC(CCCC(=O)O)C(=O)O (centres undefined) [Aminoadipic acid]
LC retention time: 6.5 min

CCC1C(=O)OCC1Cc1cncn1C (centres undefined) [Pilocarpine]
LC retention time: 1.22 min

NCCCCC(=O)O [5-Aminovaleric acid]
LC retention time: 5.83 min

O=C(O)CCCCC1SCC2NC(=O)NC21 (centres undefined) [Biotin]
LC retention time: 1.17 min

NCC(=O)N[C@@H](Cc1ccc(O)cc1)C(=O)O [Glycyl-L-tyrosine]
LC retention time: 5.97 min

O=C(O)c1ccc(=O)[nH]c1 [6-Hydroxynicotinic acid]
LC retention time: 5.17 min

NC(=O)NCCC[C@H](N)C(=O)O [L-Citrulline]
LC retention time: 6.76 min

CS(=N)(=O)CC[C@H](N)C(=O)O (stereo partly drawn) [(2S)-2-Amino-4-(S-methylsulfonimidoyl)butanoic acid]
LC retention time: 6.69 min

CC(C(=O)O)c1cccc(C(=O)c2ccccc2)c1 (centres undefined) [Ketoprofen]
LC retention time: 0.455 min

Nc1nc(N)c2nc(-c3ccccc3)c(N)nc2n1 [Triamterene]
LC retention time: 2.5 min

Nc1nc2c(ncn2C2OC(CO)C(O)C2O)c(=O)[nH]1 (centres undefined) [Guanosine]
LC retention time: 4.96 min

Nc1nc2[nH]c(=O)cnc2c(=O)[nH]1 [Isoxanthopterin]
LC retention time: 4.02 min

N[C@H]1C(O)O[C@H](CO)[C@@H](O)[C@@H]1O (stereo partly drawn) [D-(+)-Glucosamine]
LC retention time: 6.72 min

CC(=O)N[C@@H](CCCN=C(N)N)C(=O)O [N-Acetyl-L-arginine]
LC retention time: 6.21 min

O=Cc1ccc(O)c(O)c1 [3,4-Dihydroxybenzaldehyde]
LC retention time: 0.571 min

C[N+](C)(C)C[C@H](O)CC(=O)[O-] [L-Carnitine]
LC retention time: 6.22 min

COc1ccc2c(c1)C(=O)N(CCc1ccc(S(=O)(=O)NC(=O)NC3CCCCC3)cc1)C(=O)C2(C)C [Gliquidone]
LC retention time: 0.417 min

Fc1ccc(C2CCNCC2COc2ccc3c(c2)OCO3)cc1 (centres undefined) [Paroxetine]
LC retention time: 1.19 min

Cc1c[nH]c2ccccc12 [3-Methylindole]
LC retention time: 0.412 min

NC(=O)c1ncn(C2OC(CO)C(O)C2O)n1 (centres undefined) [Ribavirin]
LC retention time: 3.11 min

O=C(O)CN(CCO)CCO [Bicine]
LC retention time: 6.2 min

Cc1cnc(NC(=O)C2=C(O)c3ccccc3S(=O)(=O)N2C)s1 [Meloxicam]
LC retention time: 0.416 min

Cc1ccc(C(C)C)cc2c(C)ccc1-2 [Guaiazulene]
LC retention time: 0.402 min

CC(=O)NCCCNCCCCNCCCN [N1-Acetylspermine]
LC retention time: 8.5 min

CNC(=O)c1cccnc1 [N'-Methylnicotinamide]
LC retention time: 0.564 min

O=C/C=C/c1ccccc1 [trans-Cinnamaldehyde]
LC retention time: 0.43 min

CCCC(=O)Nc1ccc(OCC(O)CNC(C)C)c(C(C)=O)c1 (centres undefined) [Acebutolol]
LC retention time: 2.28 min

COc1cc(O)cc(OC)c1 [3,5-Dimethoxyphenol]
LC retention time: 0.433 min

CCCCCC(=O)OCC(COC(=O)CCCCC)OC(=O)CCCCC [Glycerol Trihexanoate]
LC retention time: 0.406 min

Cc1occc(=O)c1O [3-Hydroxy-2-methyl-4-pyrone]
LC retention time: 0.613 min

O=c1ccn(C2OC(COP(=O)(O)OP(=O)(O)O)C(O)C2O)c(=O)[nH]1 (centres undefined) [Uridine 5'-diphosphate]
LC retention time: 8.14 min

NC(=O)c1ncn(C2OC(CO)C(O)C2O)c1N [5-Aminoimidazole-4-carboxamide-1-beta-D-ribofuranoside]
LC retention time: 3.02 min

C=C1CC23CCC4C(C)(C(=O)OC5OC(CO)C(O)C(O)C5O)CCCC4(C)C2CCC1(OC1OC(CO)C(O)C(O)C1OC1OC(CO)C(O)C(O)C1O)C3 (centres undefined) [Stevioside]
LC retention time: 4.85 min

NC(=O)c1ccc[n+](C2OC(COP(=O)(O)OP(=O)([O-])OCC3OC(n4cnc5c(N)ncnc54)C(OP(=O)(O)O)C3O)C(O)C2O)c1 (centres undefined) [NADP]
LC retention time: 8.7 min

CC(C)=CCCC(C)CC=O (single isomer, unassigned; (-)) [(-)-Citronellal]
LC retention time: 0.405 min

CCCCCC(=O)NCC(=O)O [Hexanoyl Glycine]
LC retention time: 1.27 min

Cc1cc2nc[nH]c2cc1C [5,6-Dimethylbenzimidazole]
LC retention time: 0.733 min

Nc1ncnc2c1ncn2C1OC(CO)C(O)C1O (centres undefined) [Adenosine]
LC retention time: 2.08 min

CCCCc1oc2ccccc2c1C(=O)c1cc(I)c(OCCN(CC)CC)c(I)c1 [Amiodarone]
LC retention time: 0.756 min

CNCCc1ccc(O)cc1 [N-Methyltyramine]
LC retention time: 2.53 min

COC(=O)C1C2CC3c4[nH]c5cc(OC)ccc5c4CCN3CC2CC(OC(=O)c2cc(OC)c(OC)c(OC)c2)C1OC (centres undefined) [Reserpine]
LC retention time: 0.769 min

COc1ccc2c(c1OC)=CN1CCc3cc4c(cc3C1C=2)OCO4 (centres undefined) [Berberine]
LC retention time: 0.872 min

NC(=O)C1=CN(C2OC(COP(=O)(O)OP(=O)(O)OCC3OC(n4cnc5c(N)ncnc54)C(O)C3O)C(O)C2O)C=CC1 (centres undefined) [NADH]
LC retention time: 7.5 min

N[C@@H](CO)C(=O)O [L-Serine]
LC retention time: 6.56 min

CCCCCCCCCCCCCCCC(=O)OCC(COP(=O)(O)O)OC(=O)CCCCCCCCCCCCCCC (centres undefined) [1,2-Dipalmitoyl-sn-glycero-3-phosphate]
LC retention time: 2.45 min

NC(N)=NCC(=O)O [Guanidoacetic acid]
LC retention time: 6.12 min

CN(C)CCCC1(c2ccc(F)cc2)OCc2cc(C#N)ccc21 (centres undefined) [Citalopram]
LC retention time: 0.991 min

COc1ccc2[nH]cc(CCN)c2c1 [5-Methoxytryptamine]
LC retention time: 2.21 min

Nc1ccc(C(=O)O)cc1 [p-Aminobenzoic acid]
LC retention time: 0.555 min

NC(=O)c1ccc[n+](C2OC(COP(=O)(O)OP(=O)([O-])OCC3OC(n4cnc5c(N)ncnc54)C(O)C3O)C(O)C2O)c1 (centres undefined) [NAD]
LC retention time: 7.82 min

CC(=O)C1(O)CCC2C3CC(C)C4=CC(=O)CCC4(C)C3CCC21C (centres undefined) [Medroxyprogesterone]
LC retention time: 0.429 min

CNCC(O)c1ccc(O)cc1 (centres undefined) [Synephrine]
LC retention time: 3.2 min

NC(CCC(=O)NC(CS)C(=O)NCC(=O)O)C(=O)O [L-Glutathione reduced]
LC retention time: 7.03 min

CC1=CC(=O)C(C)O1 (centres undefined) [2,5-Dimethyl-2,3-dihydrofuran-3-one]
LC retention time: 0.451 min

CC=CC=CC(=O)O [Sorbic acid]
LC retention time: 0.486 min

COc1ccc(OC)c(C(O)C(C)N)c1 (centres undefined) [Methoxamine]
LC retention time: 2.4 min

CC12CCC(=O)C=C1CCC1C2C(O)CC2(C)C1CCC2(O)C(=O)CO (centres undefined) [Hydrocortisone]
LC retention time: 0.479 min

O=C(O)C1CCCCN1 (stereo not drawn) [L(-)-Pipecolinic acid]
LC retention time: 5.85 min

CC(=CC(=O)O)C(=O)O [Citraconic acid]
LC retention time: 0.78 min

NC(=O)NCCC(=O)O [3-Ureidopropionic acid]
LC retention time: 4.57 min

CC(CN)C(=O)O (centres undefined) [3-Aminoisobutanoic acid]
LC retention time: 5.88 min

CC(C)n1c(C=CC(O)CC(O)CC(=O)O)c(-c2ccc(F)cc2)c2ccccc21 (centres undefined) [Fluvastatin]
LC retention time: 0.561 min

OCCN1CCN(CCCN2c3ccccc3Sc3ccc(Cl)cc32)CC1 [Perphenazine]
LC retention time: 1.55 min

OCC1OC(OC2C(CO)OC(O)(CO)C2O)C(O)C(O)C1O (centres undefined) [Lactulose]
LC retention time: 6.6 min

CC(=O)CC(=O)CCC(=O)O [4,6-Dioxoheptanoic acid]
LC retention time: 0.575 min

O=C(O)CCCCCC(=O)O [Pimelic acid]
LC retention time: 0.909 min

Cc1ncc(CO)c(CO)c1O [Pyridoxine]
LC retention time: 1.92 min

NC(=O)CC[C@H](N)C(=O)O [L-Glutamine]
LC retention time: 6.54 min

O=C(O)CN(CCN(CC(=O)O)CC(=O)O)CC(=O)O [Ethylenediaminetetraacetic acid]
LC retention time: 6.91 min

CN1CC(=O)N2C(Cc3c([nH]c4ccccc34)C2c2ccc3c(c2)OCO3)C1=O (centres undefined) [Tadalafil]
LC retention time: 0.457 min

CC(C=CC1=C(C)CCCC1(C)C)=CC=CC(C)=CC(=O)O [Retinoic Acid]
LC retention time: 0.433 min

COc1ccc(CCN(C)CCCC(C#N)(c2ccc(OC)c(OC)c2)C(C)C)cc1OC (racemic) [(+/-)-Verapamil]
LC retention time: 0.815 min

Cn1c[n+](C2OC(CO)C(O)C2O)c2nc(N)nc([O-])c21 (centres undefined) [7-Methylguanosine]
LC retention time: 5.34 min

OCC1OC(OCC2OC(O)C(O)C(O)C2O)C(O)C(O)C1O (centres undefined) [Melibiose]
LC retention time: 7.08 min

O=C(O)C(O)Cc1c[nH]c2ccccc12 (racemic) [DL-Indole-3-lactic acid]
LC retention time: 0.968 min

CC(=O)N[C@@H](CS)C(=O)O [N-Acetyl-L-cysteine]
LC retention time: 3.49 min

CN[C@H](CC(=O)O)C(=O)O [N-Methyl-D-aspartic acid]
LC retention time: 7.02 min

CC(=O)NC(Cc1c[nH]c2ccccc12)C(=O)O (racemic) [N-Acetyl-DL-Tryptophan]
LC retention time: 1.32 min

CC1OC(OCC2OC(Oc3c(-c4ccc(O)c(O)c4)oc4cc(O)cc(O)c4c3=O)C(O)C(O)C2O)C(O)C(O)C1O (centres undefined) [Rutin]
LC retention time: 4.42 min

COC(=O)C1=C(C)NC(C)=C(C(=O)OCCN(C)Cc2ccccc2)C1c1cccc([N+](=O)[O-])c1 (centres undefined) [Nicardipine]
LC retention time: 0.714 min

NCCCC(N)C(=O)O (centres undefined) [Ornithine]
LC retention time: 7.71 min

Cn1c(=O)[nH]c2ncn(C)c2c1=O [1,7-dimethylxanthine]
LC retention time: 0.655 min

CC(C)NCC(O)COc1ccc(CC(N)=O)cc1 (centres undefined) [Atenolol]
LC retention time: 3.34 min

CCCOC(=O)c1cc(O)c(O)c(O)c1 [Propyl gallate]
LC retention time: 0.478 min
